Test results: patent US11052154B2, “Ras protein degradation inducing molecule and pharmaceutical composition” (Tokyo University of Science Foundation, priority 2016, dated 2021)

What was measured:
HeLa cells = assay: Apoptosis induction in HeLa cells, FACS analysis (Annexin V/PI); type: cell-based, human; details: HeLa cells expressing wild-type K-Ras, 24 hours after addition; FIGS. 6A, 7A
Description: (§1) In Example 7, apoptosis induction in a case where TUS-007, Ras-SOS, or Ras-SOS-NH2 was added to HeLa cells or SW1990 cells (human pancreatic cancer cells) had been added was evaluated by the FACS analysis. It is noted that in HeLa cells, the wild-type K-Ras protein (K-Ras-WT) is expressed, and in SW1990 cells, the G12D mutant K-Ras protein (K-Ras-G12D) is expressed.
(§2) HeLa cells or SW1990 cells were seeded in a 24-well plate at a cell density of 8×10^4 cells/well, and then cultured under conditions of 37° C. and 5 vol % CO2 for 16 hours.
(§3) After 16 hours from cell seeding, TUS-007, Ras-SOS, or Ras-SOS-NH2 were added to HeLa cells or SW1990 cells as follows. As a medium, a serum-free medium (37° C.) in which 1 mass % L-glutamine solution (Sigma-Aldrich) was added to D-MEM (high D-glucose, phenol red, sodium pyruvate (Wako Pure Chemical Industries, Ltd.)) was used. It is noted that the L-glutamine solution was added immediately before use. A DMSO solution containing TUS-007, Ras-SOS, or Ras-SOS-NH2 was mixed with the medium so that the concentration of DMSO was 1 vol %, and added to each well at 500 μL/well, and cultured under conditions of 37° C. and 5 vol % CO2. As a control, DMSO was used.
(§4) The medium was removed 24 hours after addition of TUS-007, Ras-SOS, or Ras-SOS-NH2, and then PBS was added to wash the cells. After removing PBS, trypsin (0.25 w/v % trypsin-1 mmol/L EDTA⋅4 Na solution with phenol red) (Wako Pure Chemical Industries, Ltd.) at 37° C. was added to each well at 200 μL/well, and cultured under conditions of 37° C. and 5 vol % CO2 for 1 minute. […]
(§5) A BD FACSCanto™ II (BD Biosciences) was used for flow cytometry. […] The proportion of Annexin V-positive and PI-negative cells was calculated using an analysis software FlowJo™ (TOMY Digital Biology Co., Ltd.), and the proportion was defined as a proportion of apoptosis cells.
(§6) In Example 8, apoptosis induction in a case where TUS-007, Ras-SOS-NH2, or erlotinib as an anticancer agent (EGFR inhibitor) was added to HeLa cells or SW1990 cells was evaluated by FACS analysis as in Example 7.

[1] = Acute toxicity, single oral dose in Jcl:ICR mice; type: in vivo, mouse
Description: Acute toxicity when TUS-007 was orally administered to Jcl:ICR mice (8 weeks old, female) (CLEA Japan, Inc.) in a single dose of 80 mg/kg body weight, 300 mg/kg body weight, or 1000 mg/kg body weight was evaluated.

SW1990 cells = assay: Apoptosis induction in SW1990 cells, FACS analysis (Annexin V/PI); type: cell-based, human; details: SW1990 cells expressing G12D mutant K-Ras, 24 hours after addition; FIGS. 6B, 7B
Description: as §1, §2, §3, §4, §5, §6

CCC(C)[C@H](NC(=O)CCCCCCNC(=O)[C@H](CC(C)C)NC(=O)CNC(=O)c1cc(Cl)ccc1Cl)C(=O)Nc1ccc2[nH]c(Cc3c[nH]c4ccccc34)nc2c1 (stereo in doubt) [TUS-007]
apoptosis induction (proportion of Annexin V-positive and PI-negative cells) (HeLa cells): apoptosis was induced in a concentration-dependent manner
LD50 ([1]; single oral dose): > 1000 mg/kg body weight
general condition of the mice (acute toxicity) ([1]; single oral dose of 80, 300 or 1000 mg/kg body weight): no abnormality in the general condition of the mice
apoptosis induction (proportion of Annexin V-positive and PI-negative cells) (SW1990 cells): the effect of the apoptosis by TUS-007 was high at the same level as in the case of the HeLa cells
